Several values for one entry are separate records, joined by “and”; a condition that tells them apart may be missing. Equal values may be shown once.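 Exposure lasted 48 hours, with cells grown in 96-well plates and compounds tested at five concentrations. GI50 marks 50% less growth. At the TGI there is no net growth.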
Columns and labels:
Assay in all cases: NCI anticancer screen, dose series, 48 h
SF-268 CNS = tested on: SF-268 CNS
KM12 colon = tested on: KM12 colon
SNB-19 CNS = tested on: SNB-19 CNS
OVCAR-8 ovarian = tested on: OVCAR-8 ovarian
OVCAR-5 ovarian = tested on: OVCAR-5 ovarian
A498 renal = tested on: A498 renal
RXF 393 renal = tested on: RXF 393 renal
MDA-MB-435 = tested on: MDA-MB-435
RPMI-8226 leukemia = tested on: RPMI-8226 leukemia
EKVX NSCLC = tested on: EKVX NSCLC

SMILES	GI50 (SF-268 CNS) [µM]	TGI (SF-268 CNS) [µM]	GI50 (KM12 colon)	TGI (KM12 colon) [µM]	GI50 (SNB-19 CNS) [µM]	TGI (SNB-19 CNS) [µM]	GI50 (OVCAR-8 ovarian) [µM]	TGI (OVCAR-8 ovarian) [µM]	GI50 (OVCAR-5 ovarian) [µM]	TGI (OVCAR-5 ovarian) [µM]	GI50 (A498 renal) [µM]	TGI (A498 renal) [µM]	GI50 (RXF 393 renal) [µM]	TGI (RXF 393 renal) [µM]	GI50 (MDA-MB-435) [µM]	TGI (MDA-MB-435) [µM]	GI50 (RPMI-8226 leukemia) [µM]	TGI (RPMI-8226 leukemia) [µM]	GI50 (EKVX NSCLC) [µM]	TGI (EKVX NSCLC) [µM]
COc1cnc2c(c1)C(=O)c1c-2n(CCCN2CCCC2)c(=O)c2cc(F)ccc12	0.411	13.9	0.284 µM	4.73	0.24	2.74	0.206	1.05	0.41	3.23	0.344	1.65	0.36	1.53	0.49	13.9	0.123	0.643	0.407	4.24
CCCCCCCC(=O)SCC/C=C/[C@@H]1CC(=O)NCc2nc(co2)C2=N[C@@](C)(CS2)C(=O)N[C@@H](C(C)C)C(=O)O1	0.0422	8.34	0.0253 µM	1.61	0.115	> 50	0.0124	> 50	0.00849	> 50	0.0096	0.0396	0.0212	0.139	0.0148	1.63	0.09	> 50	0.0344	> 50
N[C@@H]1CCCN(c2c(/C=C3\SC(=O)NC3=O)cccc2-c2ccccc2)C1	16.1	33.2	14.2 µM	28.9	2.93	13.2	14	27.9	10.5	23.4	1.5	18.8	6.06	20.2	11.4	24.3	2.23	21.6		
COc1ccc(-c2cc(-c3cc(OC)c(OC)c(OC)c3)c(C#N)c(N3CCOCC3)n2)cc1O	6	> 100	3.06 µM	> 100	5.33	> 100	6.11	> 100		> 100	> 21.4	> 77.9			3.28	> 43.7	0.514	3.6	8.95	> 100
CCCCCCCCCCCCOC1C(CNC(=O)C2OC3OC(C)(C)OC3C2NC(=O)CN2CCCCCC2)OC2OC(C)(C)OC21 (stereo not given)	5.27	20.8	5.44 µM	19.1	10.3	23.8	11	25.5	6.44	19.5	13	26.3	2.87	8.6	2.72	7.9	3.28	12.5	8.15	20.7
COc1ccc2c(c1)[n+](=O)c(C(=O)/C=C/c1cc(OC)c(OC)c(OC)c1)c(C)n2[O-]	8.15	40.4	> 100 µM	> 100	14.1	36.5	6.03	30.3	20.8	62.9	16.4	57.5	6.47	21.5	> 100	> 100	47.2	> 100	1.97	15.1
CCN1C(=O)N(c2ccccc2)C2NN=c3s/c(=C4\C(=O)N(C(C)C)c5ccccc54)c(=O)n3C21 (stereo not given)	2.1	> 100	0.977 µM	> 100	2.1	> 100	2.05	> 100	3.38	> 100	0.367	1.64	0.612	2.63	0.283	0.991	2.92	18	1.83	> 100
Nc1nc(N)c2nc(CNc3ccc(C(=O)NC(CCCNC(=O)c4ccccc4C(=O)O)C(=O)O)cc3)cnc2n1 (stereo not given)		> 100	< 0.01 µM and 0.00297 µM	> 100		> 100	0.0015	> 100	0.00196	> 100		> 100		> 100		> 100		> 100		> 100
C#Cc1cccc(Nc2nc3ccc([N+](=O)[O-])cc3nc2Nc2cccc(C#C)c2)c1	0.313	1.3	0.299 µM	1.03	0.361	1.84	0.303	1.46	0.338	1.35	0.227	0.783	0.227	0.618	0.265	0.838	0.218	0.998	0.249	0.987
C[C@H]1C(Oc2ccc(O)cc2)OC2OC3(C)CCC4[C@H](C)CCC1C24OO3 (stereo not given in full)	12.9	27.2	11.4 µM	> 82.1	17.1	36.5	2.12	25.4	10.4	25.9	16.7	31.2	19.1	41.3	12.4	46.3		> 63.1	6.42	23.1
CC(=O)OCC1O[C@@H]([S-])C(OC(C)=O)[C@H](OC(C)=O)[C@@H]1OC(C)=O.[Au+].c1ccc(CN2[CH-]N(Cc3ccccc3)C(c3ccccc3)=C2c2ccccc2)cc1			2.09 µM	4.27			2.61	7.38	1.92	3.96	2.06	4.02	1.63	3.51	1.66	3.1	1.9	4.94		
NC(=O)/C=C/NC(=O)/C=N\O		> 100		> 100		> 100		> 100		> 100		> 100		> 100		> 100		> 100		> 100
C=C(C)[C@@H]1CC[C@]2(COC3CCCCO3)CC[C@]3(C)[C@H](CC[C@@H]4[C@@]5(C)C=C(C=O)C(=O)C(C)(C)[C@@H]5CC[C@]43C)[C@@H]12 (stereo not given in full)	1.34	3.05	1.37 µM	3.5	1.35	2.89	1.49	3.86	1.79	4.21	0.368	1.98	1.24	2.73	1.05	2.32	1.59	8.3	1.62	3.32
CN(C[C@@H]1COCCO1)S(=O)(=O)Nc1ccc2ccc3ncc(-c4cnn(C)c4)cc3c(=O)c2c1	4.26	> 100	0.369 µM	> 100	12.5	> 100	5.04	> 100	> 81.2	> 100	0.447	2.18	1.1	6.71	7.13	> 100	3.88	> 100	19.1	> 100
CCCCCC/C=C\CCCCCCCCCC1=CC(=O)C=C(OC)C1=O		19.3		19.2		20.1		12.5		17.8		13.5		13.1		13.8		7.83		12.5
CCOC(=O)c1cc2c(n1Cc1ccccc1)-c1oncc1CC2	6.89	79	3.49 µM	27.6	7	> 100	7.19	66.9	16.2	> 100	1.55	7.5	6.88	30.9	0.878	4.37	4.65	30.2	5.65	49.5
COc1ccc(-c2csc(-c3cc(Cl)cc(Cl)c3Cl)n2)cc1	58	> 100	48.1 µM	> 100	50.3	> 100	48.4	> 100	> 100	> 100	> 100	> 100	46.4	> 100	21.8	> 100	67	> 100	59.9	> 100
O=C1CCc2c(sc3[nH]c(=S)n(Cc4ccccc4)c(=O)c23)C1	3.55	> 100	1.73 µM	6.56	3.93	> 100	3.19	> 100	3.67	> 100	3.44	> 100	5.81	> 100	3.43	> 100	1.18	9.79	3.58	> 100
CNC1C(O)C(OC2C(N)CC(N)C(OC3OC(C(C)O)C(O)C(O)C3N)C2O)OCC1(C)O (stereo not given)		> 100		> 100		> 100		> 100		> 100		> 100				> 100		> 100		> 100
Nc1nnc(Cn2c(-c3ccccc3)nc3ccc(Br)cc3c2=O)s1	> 100	> 100	25.1 µM	> 100	> 100	> 100	1.25	41	> 100	> 100	15.1	74			45.9	> 100	18.1	62.8	> 100	> 100
CC/C(C)=C1\OC(=O)C(C)C(O)C(Cc2cccnc2)NC(=O)C(NC(=O)c2ncccc2O)C(C)OC1=O (stereo not given)		> 100		> 100		> 100		> 100		> 100		> 100				> 100		> 100		> 100
Nc1c(C(=O)Nc2ccccc2F)sc2nc3c(cc12)C(=O)CCC3	> 30.6	> 100	0.547 µM	> 100	2.6	> 100	13.8	> 100	4.05	> 100	0.47	> 24	0.738	3.82	0.216	0.661				> 100
CCc1nc(Cl)nc(Cl)c1Cl		3.37		15.5		11.3		5.34		9.81		25.6		4.37		6.53				38.7
O=C(Oc1ccccc1Cl)c1ccccc1Nc1ccnc(C(F)(F)F)c1	0.71		0.299 µM	1.36	7.43	> 100	0.366	14.3	0.459	24.4	3.92	17.6			0.107	0.297	0.106	0.385	6.85	26
CCCSC1=NC2C(N(CC)C(=O)N2CC)N1/N=C/C=C/c1ccccc1[N+](=O)[O-] (stereo not given)	4.69	> 100	3.55 µM	> 100	3.74	> 100	3.76	> 100	5.65	> 100	1.59	6.35	1.8	8.32	2.02	7.24			3.89	> 100
Cc1cc(C)nc(SC2=C(Nc3cccc(Cl)c3C)C(=O)N(Cc3ccccc3)C2=O)n1	> 160	> 160	> 160 µM	> 160	> 160	> 160	> 160	> 160	> 160	> 160	> 160	> 160			> 160	> 160	> 160	> 160	> 160	> 160
CSc1ccc(/C=C/c2ccnc3ccccc23)cc1		66		> 100		34		28.8		35		29.2		33		12.5				22.3
